In patent US12668803B2, “Glypican-3-specific modified aptamer and use thereof” (APTAMER SCIENCES INC., priority 2019, dated 2026):

Columns and labels:
[1] = system: squamous cell carcinoma cell A431; assay: Cytotoxicity (CCK-8) of 12-12 G(3); format: cell-based
Procedure: (§1) In detail, HepG2, Hep3B, and A431 cells (ATCC, Rockville, MD, USA) were each seeded in a 96-well plate at a density of 1×10^4/mL and cultured using a DMEM (Gibco, Grand Island, NY, USA) medium containing 10% FBS (Gibco, Grand Island, NY, USA) and 1% antibiotics (penicillin/streptomycin) under conditions of 5% CO2 and 37° C. The next day, the aptamer stock (100 μM) was mixed with 5×SB18 buffer to prepare the stock at a concentration of 80 μM, and heated at 95° C. for 5 min, and then cooled at room temperature for 15 min or more. The medium was removed from the cultured cells, and 100 μL of a serum-free medium was added thereto, and cultured under conditions of 37° C. and 5% CO2 for 1 hr. The serum-free medium was removed, and then the cells were washed with 100 μL of 1×PBS. 100 μL of KRPH buffer was added, and cultured under conditions of 37° C. and 5% CO2 for 1 hr. The aptamer was diluted with KRPH buffer to 2-fold of the desired concentration, and added to a 96-well plate at 1× concentration, and cultured under conditions of 37° C. and 5% CO2 for 4 hr. After treatment with the aptamer, the KRPH buffer was removed, and then 100 μL of culture medium was added and cultured under conditions of 37° C. and 5% CO2 for 6 days. 6 days later, 10 μL of a CCK-8 kit solution was added to each well, and then cultured under conditions of 37° C. and 5% CO2 for 3 hr. Cell death levels were examined at […] using a microplate reader.

HepG2 = assay: Cytotoxicity (CCK-8) of 12-12 G(3); format: cell-based
Procedure: as §1

Huh-7 cells = assay: Cellular internalization analysis (microscopy, lysotracker/DAPI); format: cell-based
Procedure: 5 aptamer libraries prepared by truncating the 12-10 aptamer at various lengths [12-12 (35-mer), 12-11 (29-mer), 12-13 (24-mer), 12-14 (23-mer), and 12-15 (18-mer)] were subjected to cellular internalization analysis. In detail, a 6-well plate was prepared, and a round cover glass was placed in the 6-well plate. Huh-7 cells were cultured in the 6-well plate according to the method of Example 1-3. 5 μM of the aptamer stock was mixed with 5×SB18 buffer to prepare the aptamer at a concentration of 4 μM, and heated at 95° C. for 5 min, and then cooled at room temperature for 15 min or more. The next day, the medium was removed from the cultured cells, and a serum-free medium was added thereto, and cultured under conditions of 37° C. and 5% CO2 for 1 hr. The serum-free medium was removed, and then the cells were washed with 2 mL of 1×PBS. KRPH buffer was added, and cultured under conditions of 37° C. and 5% CO2 for 1 hr. 4 μM aptamer was diluted to 25 nM, and then cultured under conditions of 37° C. and 5% CO2 for 1 hr or 4 hr. Washing was repeated three times with 2 mL of 1×PBS. Washing was performed in a shaker at room temperature for 10 min while blocking the light. Thereafter, the cells were fixed by treatment with 4% paraformaldehyde at 4° C. for 10 min. Washing was repeated three times with 2 mL of 1×PBS. A permeabilization solution (0.2% Triton X-100 in 1×PBS) was added, followed by incubation at room temperature for 15 min. Washing was repeated three times with 2 mL of 1×PBS. A blocking solution (3% BSA, 1×PBS) was added, followed by incubation under conditions of 37° C. and 5% CO2 for 20 min. Washing was performed once with 2 mL of 1×PBS. Treatment with a blocking solution containing 150 nM lysotracker was performed, followed by incubation under conditions of 37° C. and 5% CO2 for 1 hr. Washing was repeated three times with 2 mL of 1×PBS, and staining with 4′,6-diamidino-2-phenylindole (DAPI) was performed. The cover glass was carefully removed and […]. […]

[2] = Serum stability analysis (urea PAGE); format: in vitro ADME, human; conditions: 100% human serum, 37° C., FIG. 28
Procedure: To examine whether 12-12, combi 5 aptamer, combi 4 and combi 5 modified aptamers bound with three or five gemcitabines are stable in the human serum, serum stability was analyzed. In detail, 10 μL of […] was added to 100% human serum, followed by incubation at 37° C. for 0 hr, 1 hr, 3 hr, 6 hr, 12 hr, and 24 hr. After incubation, 5 μL of […] was added, and distilled water was added to a volume of 250 μL. 250 μL of phenol:chloroform:isoamyl alcohol (25:24:1) was added in the equal volume, followed by stirring. Each sample was centrifuged at 16000×g for 10 min. The supernatant was transferred to a new tube, and completely dried. The resultant was diluted with 5× sample buffer and distilled water, and boiled at 95° C. for 5 min, and cooled. The sample was separated by urea PAGE (Polyacrylamide gel Electrophoresis) at 220 V for 25 min, and then stained with SYBR gold and examined using a Gel Doc™ EZ system.

Huh 7 cells = assay: Cell binding analysis of Cy5-labeled aptamers (FACS); format: cell-based; conditions: 25 nM aptamer, 12-10 and truncated aptamers, FIG. 6
Procedure: The 12-10 aptamer and 5 aptamer libraries prepared by truncating the 12-10 aptamer at various lengths [12-10 (40-mer), 12-12 (35-mer), 12-11 (29-mer), 12-13 (24-mer), 12-14 (23-mer), 12-15 (18-mer)] were subjected to cell binding analysis. Each aptamer sequence was labeled with Cy5 at the 5′ end thereof according to the method of Example 1-1. Huh 7 cells (ATCC, Rockville, MD, USA) were seeded at a density of 2×10^6/mL in a 100 mm^2 culture plate, and cultured using a DMEM medium (Gibco, Grand Island, NY, USA) containing 10% FBS (Gibco, Grand Island, NY, USA) and 1% antibiotics (penicillin/streptomycin) under conditions of 5% CO2 and 37° C. 5 μM of the aptamer stock was mixed with 5×SB18 buffer to prepare the aptamer at a concentration of 4 μM, and heated at 95° C. for 5 min, and then cooled at room temperature for 15 min or more. 4 μM of the aptamer was diluted with KRPH buffer (20 mM HEPES, 5 mM KH2PO4, 1 mM MgSO4, 1 mM CaCl2, 136 mM NaCl, 4.7 mM KCl, pH 7.4) at a concentration of 25 nM. The culture medium was removed from the cultured cells, and 4 mL of phosphate-buffered saline (PBS) was added thereto, followed by washing, and then 4 mL of PBS was removed. 4 mL of cold PBS or warm PBS was added, and cells were scraped using a scraper, and collected in tubes, followed by pipetting. The cells were divided and added to fluorescence-activated cell sorting (FAC) tubes according to the number of samples, followed by centrifugation at 4° C. and 2000 rpm for 4 min. After removing the supernatant, each 500 μL of 25 nM aptamer and control (31-08 (40-mer) aptamer) were added to […] of KRPH buffer, followed by pipetting. The tube was covered with foil to block the light, followed by incubation at 4° C. for 30 min. After incubation, centrifugation was performed at 4° C. and 2000 rpm for 4 min, and the supernatant was removed. 2 mL of cold 1×PBS was added, washed, centrifuged at 4° C. and 2000 rpm for 4 min, and the supernatant was removed. This process was repeated three times. […] Cy5 was measured at […]. […]

Hep3B = assay: Cellular internalization of chemically optimized aptamers (FIG. 17A); format: cell-based; conditions: combi 1 to combi 5, FIG. 17A
[3] = system: hepatoma specific cells expressing high levels of GPC3 (HepG2, Hep3B); assay: Cellular internalization of combi 6 to combi 10 (FIG. 17B); format: cell-based

## 12-12 G(3) (DNA GNGAANGCGNNGAANNANGNSSSNNCAGNCANCAC; three gemcitabines, BzdU and 3' inverted dT, positions not given here)
[1]; 10 nM to 1 μM, FIG. 12
  cell-killing effects on A431: no cell-killing effects
[1]; 31.75 nM to 2 μM, FIG. 13
  cell-killing effects on A431: no cell-killing effects
HepG2; 10 nM to 1 μM, vs 12-12 or 30 nM to 3 μM gemcitabine, FIG. 12
  HepG2-killing effects: excellent HepG2-killing effects
HepG2; 31.75 nM to 2 μM, vs same concentrations of 12-12 or gemcitabine, FIG. 13
  HepG2-killing effects: excellent HepG2-killing effects
Huh-7 cells; 1 hr, 2 hr, and 4 hr after the start of internalization, FIG. 11
  cellular internalization over time: most excellent cellular internalization
Huh-7 cells; vs 12-12 and scrambled 12-12, FIG. 10
  cellular internalization: most excellent cellular internalization

## 12-12: SEQ ID NO: 6, 35-mer truncated from 2428-12-10, idT at 3′ end (GNGAANGCGNNGAANNANGNCCCNNCAGNCANCAC; modified base n undefined, 3' idT per name, further chemistry not given here)
[2]
  half-life in the human serum: 6 h
Huh-7 cells; 25 nM, truncated aptamers, FIG. 7
  cellular internalization: most excellent cellular internalization
Huh 7 cells
  cell binding ability: most excellent cell binding ability

## Combi 4: SEQ ID NO: 13, chemically optimized 12-12 aptamer (G_{Me}nG_{Me}A_{F}A_{F}nGCGnnG_{F}A_{F}A_{F}nnA_{F}nGYC_{F}C_{F}C_{F}nnCAG_{Me}nCAnCAMC_{F}; 2'-F and 2'-OMe units, modified bases n, Y, M undefined, 3' idT, as printed in the source, key not given here)
Hep3B
  Hep3B cellular internalization: excellent cellular internalization

## Combi 8: SEQ ID NO: 17, chemically optimized 12-12 aptamer (G_{Me}nG_{Me}A_{F}A_{F}nGCGnnG_{F}A_{F}A_{Me}nnA_{Me}nWnC_{F}C_{F}C_{F}nnCAG_{Me}nCAnC_{F}A_{Me}C_{F}; 2'-F and 2'-OMe units, modified bases n, W undefined, 3' idT, as printed in the source, key not given here)
[3]
  cellular internalization: highest cellular internalization

## Combi 9: SEQ ID NO: 18, chemically optimized 12-12 aptamer (G_{Me}nG_{Me}A_{F}A_{F}nGCGnnG,A_{F}AnnAnGnC_{F}C_{F}C_{F}nnCAG_{Me}nCAnCrAyCr; 2'-F and 2'-OMe units, modified base n undefined, 3' idT, as printed in the source, key not given here)
[3]
  cellular internalization: highest cellular internalization
